Assay results reported in US20240180888A1, “C5AR1 INHIBITORS FOR TREATING […] REACTIONS TO TAXANES” (Dompe' Farmaceutici SPA, priority 2021, published 2024).
Where two headings read alike, the source gives them in different places.

T1: complement component 5a (Homo sapiens, UniProt P01031)
T1 sequence (P01031 678-751 limits assumed): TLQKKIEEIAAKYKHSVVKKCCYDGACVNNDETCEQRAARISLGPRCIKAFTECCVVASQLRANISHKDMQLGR

T2: complement component 5a receptor 1 (C5aR1) (Homo sapiens, UniProt P21730)
T2 construct: purchased OriGene TP303784
T2 sequence (P21730 1-350): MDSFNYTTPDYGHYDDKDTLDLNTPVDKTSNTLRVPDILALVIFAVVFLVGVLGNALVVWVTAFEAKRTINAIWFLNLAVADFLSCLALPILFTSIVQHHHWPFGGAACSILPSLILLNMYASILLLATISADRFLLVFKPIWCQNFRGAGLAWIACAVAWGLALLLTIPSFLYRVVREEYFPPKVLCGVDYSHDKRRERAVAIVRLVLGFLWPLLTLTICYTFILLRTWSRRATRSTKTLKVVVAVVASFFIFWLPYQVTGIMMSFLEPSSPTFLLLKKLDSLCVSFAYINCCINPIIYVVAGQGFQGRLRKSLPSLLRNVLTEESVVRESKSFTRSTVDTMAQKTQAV


Legend:
complement component 5a = target: T1, complement component 5a; test: BIAcore SPR binding to C5a immobilised on sensorchip CM5; conditions: 300 microM in Running Buffer
Source text: (§1) BIAcore technology was used to analyze the interaction between Paclitaxel and complement component 5a receptor 1 (C5aR1) (Example 1), complement component 5a receptor 2 (C5AR2) (Example 2) or complement component 5a (Example 3).
(§2) The BIAcore systems exploit the phenomenon of Surface Plasmon Resonance (SPR) to monitor interactions between molecules in real time. Briefly, SPR phenomenon occurs in thin conducting films at an interface between media of different refractive index. In BIAcore systems, the media are the glass of the sensorchip and the sample solution, and the conducting film is a thin layer of gold on the sensorchip surface. BIAcore monitors the interaction between two molecules, one attached to the sensor surface, called ligand, and the other one free in solution, and called analyte.
C5a was immobilized on a sensorchip (#29149604, Cytiva). In details, 20 microg/ml of recombinant protein C5a was diluted in 10 mM acetate buffer at pH 4.5 and injected over the surface of the sensorchip. Activation and deactivation of sensorchip were performed as described in Example 1a).
Paclitaxel was injected on the C5A surface of the sensorchip prepared in Example 2a) at a concentration of 300 microM in Running Buffer.RU can be detected by BIAcore.

[1] = target: T2, complement component 5a receptor 1 (C5aR1); test: BIAcore SPR binding to C5aR1 immobilised on sensorchip CM5 via c-Myc-tag
Source text: as §1, §2
An anti-c-Myc antibody (9E10, sc-40, Santa Cruz Technology) was immobilized on a sensorchip CM5 (#29149604, Cytiva). In details, the antibody was diluted at a concentration of 50 μg/ml in 10 mM acetate buffer at pH 4.5, and injected over the surface of the sensorchip. In details, the dextran matrix on the sensorchip surface was first activated with a mixture of […] (EDC) and N-hydroxysuccinimide (NHS) to give reactive succinimide esters. Anti-Myc antibodies were then passed over the surface and the esters reacted spontaneously with uncharged amino groups to covalently link the ligand to the dextran. Then, the surface was deactivated by ethanolamine-HCl.
Once the antibody was immobilized, the receptor was captured on the surface of the sensorchip. This procedure allowed the immobilization of the ligand of interest in an oriented way. In particular, C5AR1-cMyc (TP303784, OriGene) at a concentration of 20 μg/ml in Running Buffer (50 mM HEPES buffer, pH 7.0 containing 0.01% CHS, 0.1% CHAPS, and 0.33 mM of lipids) was injected onto the sensorchip prepared above with a flow rate of 5 μI/min.
In details, 5 μM C5a (A144, Complement Technologies) in Running Buffer was injected on C5aR1 surface of sensorchip prepared in Example 1a).
To first evaluate a direct binding of Paclitaxel and C5aR1, the compound was injected on the C5aR1 surface of the sensorchip prepared in Example 1a) at a concentration of 300 μM in Running Buffer.
Running Buffer at different concentrations (from 4.06 to 37.5 μM), injected on the sensorchip for 4 minutes and allowed to dissociate for 5 minutes, flowing Running Buffer without Paclitaxel. In this way, the kinetic constant was evaluated as a function of time.
Also, the affinity value at equilibrium of Paclitaxel/Myc-05aR1 interaction was determined by measuring the steady-state binding levels, through a Scatchard analysis of the RU values at equilibrium.

Molecule	binding to immobilised C5a (complement component 5a)	Paclitaxel bound to immobilised C5aR1, resonance units ([1]; 300 μM in Running Buffer) [RU]	Kd ([1]; 4.06 to 37.5 μM, 4 minutes injection, 5 minutes dissociation, read-out: Kd value (kinetic evaluation)) [nM]	Kd ([1]; steady-state RU as a function of analyte concentration, read-out: affinity constant at equilibrium (steady-state binding levels, Scatchard analysis)) [nM]	binding to immobilised C5aR1 ([1]; 5 μM in Running Buffer)
CC(=O)O[C@H]1C(=O)[C@@]2(C)[C@H]([C@H](OC(=O)c3ccccc3)[C@]3(O)C[C@H](OC(=O)[C@H](O)[C@@H](NC(=O)c4ccccc4)c4ccccc4)C(C)=C1C3(C)C)[C@]1(OC(C)=O)CO[C@@H]1C[C@@H]2O [Paclitaxel]	not able to bind	300	670	525	
C5a: anaphylatoxin, pro-inflammatory polypeptide, the natural ligand of the receptor C5aR1 (protein, UniProt P01031 678-751, looked up, C5a anaphylatoxin, anaphylatoxin, pro-inflammatory polypeptide, the natural ligand of the receptor C5aR1) C5a anaphylatoxin: TLQKKIEEIAAKYKHSVVKKCCYDGACVNNDETCEQRAARISLGPRCIKAFTECCVVASQLRANISHKDMQLGR					can bind
